How the values were obtained:
mdx mouse = mdx mouse model of Duchenne muscular dystrophy (DMD); format: in vivo; details: mdx mice, vs MDX-Vehicle
Experimental: The effect of cilnidipine and the cilnidipine derivative NS4-043 in the mdx mouse model of Duchenne muscular dystrophy (DMD) model was evaluated. The mdx mouse has a point mutation in its DMD gene, changing the amino acid coding for a glutamine to a stop codon, which causes the muscle cells to produce a small, nonfunctional dystrophin protein.
Animals were dosed once daily with vehicle, idebenone or cilnidipine on study days: 0 to 20.
Mice were evaluated by a rotarod test on study days 19 and 20. Body weight was measured throughout the study period. […] (CK) and […] (LDH), two biomarkers of DMD, were measured on day 21.

[1] = system: Capan-1 human pancreatic ductal adenocarcinoma cells; assay: Subcutaneous Capan-1 pancreatic cancer xenograft model in female BALB/c nude mice; format: in vivo
Experimental: A study of the in vivo therapeutic efficacy of cilnidipine as a single agent or in combination with gemcitabine in the treatment of the subcutaneous Capan-1 pancreatic cancer xenograft model in female BALB/c nude mice was performed.
Female BALB/c nude mice 7-9 weeks of age were used in the study.
Capan-1 human pancreatic ductal adenocarcinoma cells were cultured in IMEM medium with 20% FBS at 37° C. and 5% CO2 in air atmosphere.
Each mouse was inoculated subcutaneously in the right upper flank region with tumor cells (5×10^6 cells) in 0.1 ml of PBS with Matrigel (1:1) for tumor development.
Randomization was started when the mean tumor size reached approximately 254.27 mm^3. A total of 48 mice were enrolled in the study and randomly allocated to the six study groups, with eight mice per group. Randomization was performed based on “Matched distribution” method (Study Director™ software, version 3.1.399.19). The date of randomization was denoted as day 0.
After tumor inoculation, the animals were checked daily for morbidity and mortality. During routine monitoring, the animals were checked for any effects of tumor growth and treatments on behavior such as mobility, food and water consumption, body weight gain/loss (body weights were measured twice per week after randomization), eye/hair matting and any other abnormalities. Mortality and observed clinical signs were recorded for individual animals in detail.
Tumor volumes were measured twice per week after randomization in two dimensions using a caliper, and the volume was expressed in mm^3 using the formula: V=(L×W×W)/2, where V is tumor volume, L is tumor length (the longest tumor dimension) and W is tumor width (the longest tumor dimension perpendicular to L). Dosing as well as tumor and body weight measurements were conducted in a Laminar Flow Cabinet. Body weights and tumor volumes were measured by using Study Director™ software (version 3.1.399.19).
The vehicle used for cilnidipine was 5% DMSO and corn oil. The vehicle used for gemcitabine was saline. Dosing volume was adjusted for body weight (dosing volume=5/10 μL/g). Treatments were initiated on day 0 following randomization.
The study was planned so that (1) mice showing a body weight loss (BWL)>20% after one measurement would be sacrificed, (2) mice showing BWL>15% after one measurement would be given a dosing holiday in a separate cage alone with daily monitoring for 72 hours, while other mice in the same group would receive dosing as scheduled, with treatment of the isolated mouse resuming when the BWL had recovered to BWL<10%, and (3) mice showing a BWL>10% would receive supplemental gel. BWL was calculated based on the BW on the first day of treatment.
The study endpoint was tumor growth inhibition (TGI). […] TGI is expressed as: TGI (%)=100×(1−T/C). […]

[2] = system: J774.1 mouse macrophage cell line; assay: In vitro phagocytosis of PE-labeled polystyrene beads by macrophages (flow cytometry); format: cell-based; details: 0.3 μM, 1 μM, or 3 μM for 20 hours; beads 2.5 hours; vs DMSO vehicle
Experimental: The effect of cilnidipine on phagocytosis by macrophages was evaluated in vitro using the J774.1 mouse macrophage cell line. Cells were seeded at 2×10^5 cells/well/200 μL of a 48 well plate and cultured for 24 hours in DMEM medium containing 10% FBS and antibiotics at 37° C. under 5% CO2. Cells were washed once and then incubated with cilnidipine at concentrations 0.3 μM, 1 μM, or 3 μM, or DMSO (vehicle) for 20 hours.
The level of phagocytosis was evaluated by adding 10 μL of DMEM medium containing 4×10^6 PE-labeled polystyrene beads (Fluoresbrite® Polychromatic Red Microspheres 2.0 μm) to cells and culturing them for 2.5 hours. Cells were then washed 3 times with PBS and collected. The level of phagocytic activity was assessed by flow cytometry, measuring the amount of fluorescent signal derived from the PE-labelled beads that were taken up by the cells, with cells treated with 0.1% DMSO used as negative control. The proportions of cells engulfing 1 or more, 2 or more, 3 or more, and 4 or more particles were measured.

[3] = system: pancreatic and melanoma cancer cell lines; assay: Anti-proliferative effects on cancer cell lines in vitro; format: cell-based; details: AsPC-1, Capan-1, KP4, MIA PaCa-2, BxPC-3, A375, SK-MEL-28, MeWo
Experimental: The effect of cilnidipine on cell proliferation of eight cancer cell lines is evaluated. Five pancreatic cancer cell lines are included, four containing KRAS mutations (AsPC-1 (G12D), Capan-1 (G12V), KP4 (M188V, G12D) and MIA PaCa-2 (G12C)), and one pancreatic cancer cell line with wild type KRAS, BxPC-3, in addition to three melanoma cell lines, two of which contain B-Raf mutations: A375 (V600E) and SK-MEL-28 (V600E), and one melanoma cell line with wild type B-Raf, MeWo.

[4] = system: MC38 cells, a murine colon adenocarcinoma cell line; assay: In vivo anti-tumor effect in MC38 tumor-bearing C57BL/6 mice; set-up: species or system mouse; details: i.t. on days 10 and 14 after tumor inoculation; vs control mice
Experimental: The in vivo anti-tumor effect of cilnidipine is assessed in MC38 tumor-bearing C57BL/6 mice. Five or seven week old C57BL/6 mice are maintained under specific pathogen-free (SPF) conditions. Mice are injected subcutaneously with 5×10^5 MC38 cells, a murine colon adenocarcinoma cell line, and treated i.t. with cilnidipine on days 10 and 14 after tumor inoculation. Tumor volume is measured at the various time points.

[5] = 10 mg/kg once daily days 0 to 20, measured day 21
[6] = 200 mg/kg once daily days 0 to 20, measured day 21

## COCCOC(=O)C1=C(C)NC(C)=C(C(=O)OC/C=C/c2ccncc2)C1c1ccccc1[N+](=O)[O-] (stereo not drawn) [NS4-043]
Mdx mouse; [5]
  plasma LDH: did not significantly decrease plasma LDH

## Nc1ccn([C@@H]2O[C@H](CO)[C@@H](O)C2(F)F)c(=O)n1 [Gemcitabine]
[1]; Group 2: gemcitabine 30 mg/kg i.p. Q3D × 4
  Tumor Growth Inhibition (TGI) on Day 20, TGI vs G01: 15.273%
[1]; Group 3: gemcitabine 100 mg/kg i.p. Q3D × 4
  Tumor Growth Inhibition (TGI) on Day 20, TGI vs G01: 30.717%

## COC1=C(OC)C(=O)C(CCCCCCCCCCO)=C(C)C1=O [Idebenone]
Mdx mouse; [6]
  plasma CK: but not idebenone, significantly suppressed plasma CK
  plasma LDH: significantly decreased plasma LDH

## COCCOC(=O)C1=C(C)NC(C)=C(C(=O)OC/C=C/c2ccccc2)C1c1cccc([N+](=O)[O-])c1 (stereo not drawn) [Cilnidipine]
[2]
  phagocytic activity of macrophages: enhanced phagocytic activity of macrophages in a dose dependent manner
[3]
  anti-proliferative effect on cancer cell lines: has an anti-proliferative effect on the cell lines
[4]
  tumor growth: reduces tumor growth as compared to control mice
Mdx mouse; [5]
  plasma CK: significantly suppressed plasma CK
  plasma LDH: significantly decreased plasma LDH
[1]; Group 4: cilnidipine 10 mg/kg p.o. QD × 21 days
  Tumor Growth Inhibition (TGI) on Day 20, TGI vs G01: 9.014%
[1]; Group 4: cilnidipine 10 mg/kg p.o. QD × 21 days, listed as cilnidipine
  Tumor Growth Inhibition (TGI) on Day 20, TGI vs G01: 9.01%

From US20240016787A1, “METHODS FOR TREATMENT OF CANCER AND PHAGOCYTOSIS-DEFICIENCY RELATED DISEASES” (RDiscovery, LLC, priority 2020, published 2024)
